For series [1], the system named is HeLa cells. The experiment in a line: PI-positive counting of GFP-PH versus GFP only transfected cells by CLSM. It counts as cell-based, human. As to conditions: 15 μM HBD-3, confocal imaging over 30 min, five independent experiments. Here is the method:
Live imaging was performed on a Zeiss LSM-780 confocal microscope using a 63× oil immersion objective in a 37°C incubator with 5% CO2. Adherent HeLa cells were cultured overnight on coverslips while suspension U937 cells were immobilised onto 0.01% (w/v) poly-L-lysine-coated coverslips. Both cell types were prepared in serum-free RPMI 1640 medium containing 0.1% (w/v) BSA and 2 μg/mL PI. HBD-3 or BODIPY FL EDA-labeled HBD-3 was added directly to the imaging chamber to final concentration of 15 μM, via a capillary tube. In certain experiments, prior to imaging, cells were pre-stained with the membrane dye PKH67 as per manufacturer's instructions (Sigma-Aldrich) or transfected with expression vectors carrying GFP only or GFP-tagged Pleckstrin homology domain of phospholipase C-delta 1 (GFP-PH(PLCδ1)) (kindly provided by Christina Mitchell, Monash University, Australia), using Lipofectamine 3000 reagent (Invitrogen) as per manufacturer's instructions. For CLSM involving transfections, images were taken as 4×4 tiles over 30 min, and the resultant data for GFP and GFP-PH transfected cells were analysed by counting PI-positive cells.

In series [2] the test system is Primary cells, HUVEC, AHDF and CASMC. The series can be described thus: Tetrazolium-based cell viability assay, primary cells. Further details: species or system human. As to conditions: range over HUVEC, 48 h, MTT, estimated, three independent experiments. Here is the method: (§1) Human epithelial cervical cancer (HeLa), leukemic monocyte lymphoma (U937), prostate cancer (PC3), promyelocytic leukemia (HL-60), leukemic T cell lymphoblast (Jurkat) cells were cultured in RPMI-1640 medium supplemented with 5–10% (v/v) fetal calf serum (FCS), 100 U/mL penicillin and 100 μg/mL streptomycin (Invitrogen, Carlsbad, CA). Human umbilical vein […] cell (HUVEC) cells were cultured in M199 medium (Invitrogen) supplemented with 20% (v/v) FCS, 40 μg/mL gentamicin, 4 μg/mL endothelial cell growth factor, 4 μg/mL L-glutamine and 135 μg/mL heparin, in 0.1% (w/v) gelatin-coated Corning CELLBIND flask (Corning Life Sciences, Acton, MA). […]
(§2) Different concentrations of HBD-3 were added to cells seeded in 96-well plates in appropriate complete medium. […] After 48 h, cell viability was determined using 3-(4,5-dimethylthiazol-2-yl)-2,5-diphenyltetrazolium bromide (MTT) (Sigma-Aldrich, MO) for adherent cells (HeLa, PC3, HUVEC, AHDF, CASMC) or 3-(4,5-dimethylthiazol-2-yl)-5-(3-carboxymethoxyphenyl)-2-(4-sulfophenyl)-2H-tetrazolium (MTS) (Promega, Madison, WI) coupled with phenzine methosulfate (PMS) (Promega) for suspension cells (U937, HL-60, Jurkat) prior to absorbance measurement at 570 nm and […], respectively. Absorbance readings of untreated control wells was designated as 100% cell viability.

Series [3] relates to plasma membrane PI(4,5)P2 of U937 cells. The experiment in a line: Anti-PI(4,5)P2 antibody blocking assay. The class given is cell-based, human. As to conditions: 15 μM defensins 30 min or 10 mM neomycin 3 h; cells fixed, saponin-lysed, FITC-conjugated anti-PI(4,5)P2 IgM, flow cytometry. Here is the method: U937 cells at 1×10^6 cells/mL were treated with 10 mM neomycin for 3 h and/or 15 μM defensins for 30 min in serum-free RPMI 1640 medium containing 0.1% BSA, followed by 20 min fixation with 2% (v/w) paraformaldehyde (Sigma-Aldrich), 10 min lysis with 0.5% (w/v) saponin (Sigma-Aldrich), and then 30 min blocking with 3% (w/v) BSA. Three 5-min centrifugal washes with PBS at 500 g were also included between steps. FITC-conjugated mouse anti-PI(4,5)P2 IgM (Echelon Biosciences) or IgM control (GeneTex, Irvine, CA) was subsequently used at 10 μg/mL for 30 min prior to flow cytometry analysis.
For orientation: Flow cytometry measures light scatter and fluorescence of single cells or particles in a stream.

Series [4] deals with tumour lines. The experiment in a line: Flow cytometry-based PI uptake assay, tumour lines. It counts as cell-based, human. As to conditions: 50 μM HBD-3 (highest dose tested), 37°C, 30 min. As for the experimental part:
(§3) Cells suspended at 1×10^6 cells/mL in serum-free medium containing 0.1% (w/v) bovine serum albumin (BSA) (Sigma-Aldrich) were treated with HBD-3 at 37°C for 30 min. Nucleic acid stain propidium iodide (PI) was then added to a final concentration of 1 μg/mL and cells subjected to flow cytometry analysis using BD FACSCanto II Flow Cytometer and BD FACSDiva Software v6.1.1 (BD Biosciences, San Jose, CA). For each flow cytometry reading, 10,000 cells, gated appropriately based on forward scattering and side scattering, were recorded. The resultant data were processed using FlowJo software (Tree Star, San Carlos, CA) to determine PI-positivity, which reflects the level of membrane permeabilisation. For lipid inhibition assays, 15 μM HBD-3 was pre-incubated with 50 μM synthetic lipids, including L-α-phosphatidic acid (PA), L-α-phosphatidylcholine (PC), L-α-phosphatidylethanolamine (PE), L-α-phosphatidylserine (PS), L-α-phosphatidylinositol-4-phosphate (PI(4)P), L-α-phosphatidylinositol-3,5-bisphosphate (PI(3,5)P2), L-α-phosphatidylinositol-4,5-bisphosphate (PI(4,5)P2) and L-α-phosphatidylinositol-3,4,5-trisphosphate (PI(3,4,5)P)3. All lipids were sourced from Avanti Polar Lipids, Alabaster, AL. […]

A short description of series [5]: Transmission electron microscopy of fibril formation with PI(4,5)P2. As to conditions: in vitro, data not shown.
In series [6] the test system is tumour lines HeLa, HL-60, Jukat, U937 and PC3. The experiment in a line: Tetrazolium-based cell viability assay, tumour lines. The arrangement: species or system human. As to conditions: range over HeLa, HL-60, Jurkat, 48 h, MTT (adherent) or MTS/PMS (suspension), estimated, three independent experiments. As for the experimental part: as §1, §2
Series [7] can be described thus: Protein-lipid overlay assay, Membrane strip. The class given is binding. As to conditions: 1 μg/mL protein, immunodetection, densitometry. Here is the method:
(§4) Protein-lipid overlay assays using Membrane strip™ or PIP strip™ (Echelon Biosciences, Salt Lake City, UT) were performed using 1 μg/mL proteins as described previously. Lipid binding was immunodetected using a combination of rabbit anti-HBD-3 IgG (50 μg/mL) and horseradish peroxidase-conjugated donkey-anti-rabbit Ig (10 μg/mL) antibodies. Chemiluminescence signal intensity was quantitated by densitometry analysis using ImageJ (National Institutes of Health, Bethesda, MD; http://imagej.nih.gov/ij/).

The test system of series [8] is primary cell type (HUVEC, AHDF, CASMC). The series can be described thus: Flow cytometry-based PI uptake assay, primary cell types. Further details: species or system human. As to conditions: 50 μM HBD-3 (highest dose tested), each primary cell type, 37°C, 30 min. As for the experimental part: as §3
Series [9] can be described thus: Protein-lipid overlay assay, PIP strip. It counts as binding. As to conditions: 1 μg/mL protein, immunodetection, densitometry. As for the experimental part:
as §4

These results are taken from PMC4811302, “Human β-defensin 3 contains an oncolytic motif that binds PI(4,5)P2 to mediate tumour cell permeabilisation” (Oncotarget, 2015).

Where no end group is shown, it is not given here.

As a reminder, the IC50 is the midpoint of a concentration-inhibition curve.

As for “human β-defensin 3 (GIINTLQKYYCRVRGGRCAVLSCLPKEEQIGKCSTRGRKCCRRKK; not fully specified; cysteine pairing not given here; UniProt P81534 23-67, looked up) [HBD-3, human β-defensin 3, cationic antimicrobial peptide, recombinantly expressed in P. pastoris]”, the “fold lower number of PI-positive cells in GFP-PH(PLCδ) versus GFP only-transfected cells” value in series [1] is 2.5 fold. Besides, the 50% inhibitory concentration (IC50) in [2] was 30 to 65 µM; in series [6], 8 to 20 µM. Further, in series [3], the “blocking of anti-PI(4,5)P2 antibody binding (overall fluorescence intensity vs untreated control)” value is recorded as “significant decrease of overall fluorescence intensity”. In addition, the “cells permeabilised (PI-positive)” value in [4] was “at least 80%”; in series [8] it was “less than 20%”. Moreover, the “oligomerisation to fibrils on binding PI(4,5)P2” value in [5] is “not observed”. For the same substance, the “relative binding intensity to lipids on Membrane strip” value in series [7] was “greater relative binding intensity toward phospholipids”. Further, the “binding to phosphoinositides/lipids on PIP strip” value in [9] is “most strongly, PA and all phosphoinositides”.
